Results from PMC10959927, “Platinum iodido drugs show potential anti-tumor activity, affecting cancer cell metabolism and inducing ROS and senescence in gastrointestinal cancer cells” (Communications Biology, 2024).
Several values for one entry are separate records, joined by “and”; a condition that tells them apart may be missing. Equal values may be shown once.

Legend:
Assay type in all cases: cell-based, human
[1] = test system: PANC1 cells; experiment: Western blotting (p-p53, p-JNK, p-p38, p-ERK, p-CHK1/2, Mcl1, BID, BAX); conditions: for fold change p-ERK vs Tubulin / fold change p-JNK vs Tubulin / fold change p-p38 vs Tubulin / fold change p-p53 vs Tubulin: PANC1, Fig. 4A, replicate values
Protocol: (§1) Total protein extracts were obtained by adding the lysis buffer: 25 mM HEPES pH 7.5, 0.3 M NaCl, 1.5 mM MgCl2, 0.2 mM EDTA, 0.5 mM DTT, 20 mM β-glicerophosphate, 0.1 mM Na3VO4, 0.1% triton X-100; in the presence of protease inhibitors. Twenty μg of protein per sample were loaded and resolved using 8%, 10% or 15% SDS-PAGE polyacrylamide gels, and then transferred onto PVDF membranes, followed by immunodetection using appropriate antibodies, purchased from Santa Cruz Technology: Mcl-1 (sc-819), Cell Signaling Technology: BIM, BID, BAX (#9942), p-p38 (1:2000, #4631), p-p53^ser15 (#9284), p-ERK1/2 (1:2000, #9106), p-CHK1^ser345 and p-CHK2^ser19 (#9931), Promega Corporation-Spain: p-JNK (#V7932), or Sigma-Aldrich: α-tubulin (1:10000, #TP026). Unless indicated, all antibodies were diluted 1:1000. Secondary antibodies conjugated with horseradish peroxidase were purchased from BioRad, and chemiluminescence detection was performed using ECL (Santa Cruz Biotechnology).

[2] = test system: AGS cells; experiment: as above; conditions: for fold change p-ERK vs Tubulin / fold change p-JNK vs Tubulin / fold change p-p38 vs Tubulin / fold change p-p53 vs Tubulin: Fig. 4A, replicate values; for fold change BID full length vs Tubulin / fold change MCL1 vs Tubulin: Fig. S3B
Protocol: as §1

[3] = test system: MKN45 cells; experiment: Immunofluorescence of γ-H2AX foci; conditions: Fig. 3B; for foci/cell, number of cells in class: cell count
Protocol: Cells (7 × 10^4) were seeded on 20 mm coverslips. […] Coverslips were incubated for 1 h with the primary antibody (Cell Signaling: H2AX Ser139 (#2595) and 53BP1 (#4937)) at room temperature, followed by a 1 h incubation with the appropriate secondary antibody. DNA was stained with DAPI. Fluorescence microscopy was performed using a NIKON Eclipse 90i. The image analysis was performed using the software program Nikon NIS-Elements and Image J.

[4] = test system: telomeres, 36B4, MT-COX1, MT-CYB DNA of PANC1 cells; experiment: Oxidized bases (FPG-sensitive lesions) in genome regions by qPCR; conditions: PANC1, IC50 concentration 24 h, normalized to control, single replicates
Excerpt: (§2) Total cellular DNA from MKN45 and PANC1 cells was extracted using an NZY Tissue gDNA Isolation Kit (Nzytech, MB13503) following the manufacturer’s instructions and quantified using a Nanodrop (Nanodrop Spectrophotometer ND-1000, ThermoFisher Scientific, Wilmington, DE, USA). We adapted the procedure described by O’Callaghan et al.[76] to measure oxidative DNA damage at telomeres, 36B4 genomic region and at mitochondrial DNA (MT-COX1, MT-CYB). This is a qPCR method based on differences in PCR kinetics between DNA template digested by Formamidopyrimidine DNA Glycosylase (FPG, Cat no. M0240S) and undigested DNA. This enzyme recognizes and cuts 8-oxoguanine, producing apurinic sites that are converted into single-strand breaks by its apurinic sites lyase activity. These single-strand breaks inhibit the PCR, thus, the ΔCT after digesting DNA by […] (Ct digested–Ct undigested) is proportional to the oxidative damage in the amplified region. DNA was incubated with 8 Units of FPG during 3 h in FPG buffer (NEB1, M0240S). The reaction was stopped by incubation at 95 °C for 5 min. qPCR analysis was performed on 40 ng of digested or undigested genomic DNA. Each qPCR was performed in triplicate including no-template controls in a StepOne Real‐time PCR System (Applied Biosystems, 4376357). Target genes (Table 3) were amplified using SYBR Green (Applied Biosystems, MB345). Thermal cycling of the qPCR reaction was initiated with a denaturation step at 95 °C for 10 min. The process consisted of 40 cycles (denaturation at 95 °C for 15 sec, annealing at 60 °C for 30 sec, and elongation at 72 °C for 30 sec). This experiment was repeated three independent times with 10–12 replicates.

[5] = test system: telomeres, 36B4, MT-COX1, MT-CYB DNA of MKN45 cells; experiment: as above; conditions: MKN45, IC50 concentration 24 h, normalized to control, single replicates
Excerpt: as §2

CC(C)[NH][Pt@SP3]([I])([I])[NH]C(C)C [I5, trans-[PtI2(isopropylamine)2]]
activation of p53 (p-p53 western blot) ([1]; PANC1, IC50, 1, 3, 6 and 24 h): did not activate p53 | phosphorylation of CHK1/2 (DDR pathway, western blot) ([1]; PANC1, IC50, 1, 3, 6 or 24 h): did not activate | fold change BAX vs Tubulin ([1]; PANC1, time 1 h, Fig. S3B): 1.558 fold change and 0.8186 fold change and 1.264 fold change | fold change BAX vs Tubulin ([1]; PANC1, time 3 h, Fig. S3B): 1.103 fold change and 1.1737 fold change and 1.2 fold change | fold change BAX vs Tubulin ([1]; PANC1, time 6 h, Fig. S3B): 1.097 fold change and 1.226 fold change and 1.154 fold change | fold change BAX vs Tubulin ([1]; PANC1, time 24 h, Fig. S3B): 1.153 fold change and 1.646 fold change and 1.378 fold change | fold change BID full length vs Tubulin ([1]; PANC1, time 24 h, Fig. S3B): 0.5478 fold change and 0.965 fold change and 0.596 fold change | fold change MCL1 vs Tubulin ([1]; PANC1, time 24 h, Fig. S3B): 1.638 fold change and 3.054 fold change and 2.481 fold change | fold change p-ERK vs Tubulin ([1]; Time 1 h): 5.052 fold change and 7.4391 fold change and 5.41 fold change | fold change p-JNK vs Tubulin ([1]; Time 1 h): 2.895 fold change and 2.7686 fold change and 4.719 fold change | fold change p-p38 vs Tubulin ([1]; Time 1 h): 2.229 fold change and 1.109 fold change and 1.075 fold change | fold change p-p53 vs Tubulin ([1]; Time 1 h): 0.74 fold change and 1.11 fold change and 0.95 fold change | fold change p-ERK vs Tubulin ([1]; Time 3 h): 4.573 fold change and 11.3646 fold change and 8.3 fold change | fold change p-JNK vs Tubulin ([1]; Time 3 h): 1.5726 fold change and 2.305 fold change and 1.813 fold change | fold change p-p38 vs Tubulin ([1]; Time 3 h): 2.01 fold change and 1.474 fold change and 1.299 fold change | fold change p-p53 vs Tubulin ([1]; Time 3 h): 0.37 fold change and 1.05 fold change and 0.6 fold change | fold change p-ERK vs Tubulin ([1]; Time 6 h): 3.1087 fold change and 13.4172 fold change and 7.72 fold change | fold change p-JNK vs Tubulin ([1]; Time 6 h): 2.264 fold change and 2.75 fold change and 2.02 fold change | fold change p-p38 vs Tubulin ([1]; Time 6 h): 1.737 fold change and 1.3292 fold change and 1.51 fold change | fold change p-p53 vs Tubulin ([1]; Time 6 h): 0.46 fold change and 1.28 fold change and 0.68 fold change | fold change p-ERK vs Tubulin ([1]; Time 24 h): 0.9081 fold change and 11.3435 fold change and 3.15 fold change | fold change p-JNK vs Tubulin ([1]; Time 24 h): 0.7671 fold change and 1.164 fold change and 1.094 fold change | fold change p-p38 vs Tubulin ([1]; Time 24 h): 1.276 fold change and 1.422 fold change and 1.33 fold change | fold change p-p53 vs Tubulin ([1]; Time 24 h): 0.81 fold change and 1.22 fold change and 0.52 fold change | activation of p53 (p-p53 western blot) ([2]; IC50, 1, 3, 6 and 24 h): did not activate p53 | phosphorylation of CHK1/2 (DDR pathway, western blot) ([2]; IC50, 1, 3, 6 or 24 h): did not activate | fold change p-ERK vs Tubulin ([2]; Time 1 h): 3.337 fold change and 2.237 fold change and 6.03 fold change | fold change p-JNK vs Tubulin ([2]; Time 1 h): 3.178 fold change and 2.647 fold change and 2.394 fold change | fold change p-p38 vs Tubulin ([2]; Time 1 h): 1.6079 fold change and 2.911 fold change and 3.19 fold change | fold change p-p53 vs Tubulin ([2]; Time 1 h): 0.8674 fold change and 0.8424 fold change and 1.7105 fold change | fold change p-ERK vs Tubulin ([2]; Time 3 h): 6.263 fold change and 7.52 fold change and 5.909 fold change | fold change p-JNK vs Tubulin ([2]; Time 3 h): 3.912 fold change and 2.163 fold change and 1.799 fold change | fold change p-p38 vs Tubulin ([2]; Time 3 h): 0.8627 fold change and 3.016 fold change and 3.496 fold change | fold change p-p53 vs Tubulin ([2]; Time 3 h): 0.5433 fold change and 0.6274 fold change and 1.359 fold change | fold change p-ERK vs Tubulin ([2]; Time 6 h): 3.858 fold change and 7.71 fold change and 6.1 fold change | fold change p-JNK vs Tubulin ([2]; Time 6 h): 2.706 fold change and 2.4308 fold change and 2.197 fold change | fold change p-p38 vs Tubulin ([2]; Time 6 h): 1.573 fold change and 3.845 fold change and 3.365 fold change | fold change p-p53 vs Tubulin ([2]; Time 6 h): 0.4994 fold change and 0.627 fold change and 1.555 fold change | fold change p-ERK vs Tubulin ([2]; Time 24 h): 3.8691 fold change and 7.1 fold change and 5.002 fold change | fold change p-JNK vs Tubulin ([2]; Time 24 h): 3.2721 fold change and 2.291 fold change and 2.816 fold change | fold change p-p38 vs Tubulin ([2]; Time 24 h): 3.758 fold change and 3.606 fold change and 2.16 fold change | fold change p-p53 vs Tubulin ([2]; Time 24 h): 0.7787 fold change and 0.8882 fold change and 1.672 fold change | fold change BID full length vs Tubulin ([2]; time 1 h): 0.978 fold change and 1.383 fold change and 0.822 fold change | fold change BID full length vs Tubulin ([2]; time 3 h): 0.826 fold change and 0.919 fold change and 0.851 fold change | fold change MCL1 vs Tubulin ([2]; time 3 h): 0.354 fold change and 0.557 fold change and 0.657 fold change | fold change BID full length vs Tubulin ([2]; time 6 h): 0.842 fold change and 0.933 fold change and 0.854 fold change | fold change MCL1 vs Tubulin ([2]; time 24 h): 1.039 fold change and 1.002 fold change and 0.903 fold change | foci/cell, share of cells in class (Suma 100) ([3]; class 16-30 foci/cell): 20 | foci/cell, number of cells in class ([3]; class 16-30 foci/cell): 5 | foci/cell, share of cells in class (Suma 100) ([3]; class 31-45 foci/cell): 24 | foci/cell, number of cells in class ([3]; class 31-45 foci/cell): 6 | foci/cell, share of cells in class (Suma 100) ([3]; class 46-60 foci/cell): 20 | foci/cell, number of cells in class ([3]; class 46-60 foci/cell): 5 | foci/cell, share of cells in class (Suma 100) ([3]; class <15 foci/cell): 16 | foci/cell, number of cells in class ([3]; class <15 foci/cell): 4 | foci/cell, share of cells in class (Suma 100) ([3]; class >61 foci/cell): 20 | foci/cell, number of cells in class ([3]; class >61 foci/cell): 5 | TEL (Fold change - ΔCt TEL), oxidative DNA damage ([4]; FPG-digested vs undigested): -0.2993 and -0.2888 and -0.1094 and 0.05784 and 0.7794 and 0.6409 and 1.117 and 1.284 and 1.153 and 1.2407 | 36B4 (Fold change - ΔCt 36B4), oxidative DNA damage [4]: 1.4221 and 1.29 and 0.7644 and 2.073 and 2.467 and 2.333 and 2.539 and 4.489 and 2.165 and 1.996 and 1.737 | MT-COX1 (Fold change - ΔCt MT-COX1), oxidative DNA damage [4]: 1.203 and 1.298 and 1.208 and 1.316 and 1.536 and 0.9948 and 1.085 and 1.109 and 1.083 and 1.329 | MT-CYB (Fold change - ΔCt MT-CYB), oxidative DNA damage [4]: 1.015 and 1.063 and 1.122 and 1.165 and 2.0159 and 1.972 and 2.298 and 2.283 and 3.887 and 4.47 and 3.714 and 6.805 | TEL (Fold change - ΔCt TEL), oxidative DNA damage ([5]; FPG-digested vs undigested): 0.4976 and 1.204 and 0.863 and 1.649 and 1.472 and 1.233 and 1.0991 and 1.079 and 1.087 and 1.22 | 36B4 (Fold change - ΔCt 36B4), oxidative DNA damage [5]: 1.703 and 1.211 and 0.8373 and 1.374 and 1.447 and 1.358 and 1.5791 and 1.8961 and 1.25 and 1.252 and 1.777 | MT-COX1 (Fold change - ΔCt MT-COX1), oxidative DNA damage [5]: 1.17 and 1.1588 and 1.212 and 1.316 and 0.8751 and 0.7769 and 2.591 and 2.527 and 2.762 and 3.255 | MT-CYB (Fold change - ΔCt MT-CYB), oxidative DNA damage [5]: 1.053 and 0.8867 and 1.024 and 1.423 and 1.446 and 1.223 and 1.361 and 1.391 and 5.526 and 1.559 and 1.507 and 3.466
